The text below walks through data of US11351168B1 (Celgene CAR LLC, priority 2008, dated 2022).

Assay [1] concerns the target BTK (Homo sapiens (Human), UniProt Q06187). The assay is described as follows: Mass spectrometry for BTK (intact protein). As to conditions: 1 hr, 10× fold excess of compound. In kind it is binding. The procedure:
Mass Spectrometry for BTK
Intact BTK was incubated for 1 hr at a 10× fold excess of I-7 to protein. Aliquots (2 μl) of the samples were diluted with 10 μl of 0.1% TFA prior to micro C4 ZipTipping directly onto the MALDI target using Sinapinic acid as the desorption matrix (10 mg/ml in 0.1% TFA:Acetonitrile 20:80).

For assay [2], the system named is BTK kinase activity (PLCγ2 phosphorylation) in Ramos cells. The assay is described as follows: Washout experiment with Ramos cells. It counts as cell-based, human. To be noted: 100 nM compound for 1 hour, then washout. As for the experimental part: Washout Experiment with Ramos Cells
Ramos cells were serum starved for one hour in RPMI media+1% glutamine at 37° C. After starvation, Ramos cells were treated with 100 nM compound diluted in serum free RPMI media for 1 hour. After compound treatment, the media was removed and cells were washed with compound-free media. Subsequently, Ramos cells were washed every 2 hours and resuspended in fresh compound-free media. Cells were collected at specified timepoints, treated with 1 ug anti-human IgM (Southern Biotech cat #2022-01) for 10 minutes on ice to induce BCR signaling and then washed in PBS. Ramos cells were then lysed in Cell Extraction Buffer (Invitrogen FNN0011) supplemented with Roche complete protease inhibitor tablets (Roche 11697498001) and phosphatase inhibitors (Roche 04 906 837 001) and 18 ug total protein lysate was loaded in each lane. Inhibition of BTK kinase activity was assayed by measuring its substrate (PLCγ2) phosphorylation by western blot with phospho-specific antibodies from Cell Signaling Technologies cat #3871. The results of this experiment with compounds I-2, I-4 and I-7 are depicted in FIGS. 1, 2 and 3.

For assay [3], the system named is BTK signaling in Ramos cells. The assay can be described thus: BTK Ramos cellular assay (phosphorylation of BTK substrate PLCγ2). It counts as cell-based, human. As to conditions: Homo sapiens, 1 hour compound, anti-IgM stimulation, read-out: BTK Inhibition (Ramos cellular). The gist of the method:
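Serum-starved Ramos Burkitt lymphoma cells treated 1 h with compound at 1, 0.1, 0.01 or 0.001 μM final. B-cell receptor stimulated with 1 μg anti-human IgM F(ab′)2, 10 min on ice. Lysates (16 μg protein) immunoblotted for phospho-PLCγ2.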

Chain of BTK (Q06187 whole entry): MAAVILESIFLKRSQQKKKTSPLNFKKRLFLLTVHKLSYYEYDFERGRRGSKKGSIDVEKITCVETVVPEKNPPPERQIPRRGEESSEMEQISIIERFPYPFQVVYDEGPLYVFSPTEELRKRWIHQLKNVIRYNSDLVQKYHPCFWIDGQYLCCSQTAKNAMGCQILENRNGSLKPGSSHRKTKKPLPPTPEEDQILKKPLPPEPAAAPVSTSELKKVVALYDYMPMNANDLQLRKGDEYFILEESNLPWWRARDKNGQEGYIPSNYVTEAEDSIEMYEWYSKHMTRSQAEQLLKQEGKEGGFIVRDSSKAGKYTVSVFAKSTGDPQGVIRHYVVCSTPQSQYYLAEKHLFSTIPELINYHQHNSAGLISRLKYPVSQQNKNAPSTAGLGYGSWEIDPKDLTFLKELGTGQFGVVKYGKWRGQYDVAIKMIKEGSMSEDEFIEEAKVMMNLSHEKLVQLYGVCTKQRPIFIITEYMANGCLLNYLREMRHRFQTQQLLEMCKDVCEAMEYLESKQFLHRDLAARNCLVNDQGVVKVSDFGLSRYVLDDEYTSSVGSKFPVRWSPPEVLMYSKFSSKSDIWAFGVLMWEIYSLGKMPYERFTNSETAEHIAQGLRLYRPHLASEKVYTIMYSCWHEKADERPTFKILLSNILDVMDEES

Regarding “2-((4-(5-fluoro-2-(3-trifluoromethoxyphenylamino)pyrimidin-4-ylamino)phenyl)(hydroxy)methyl)acrylonitrile [Compound I-163]”, the “modification of BTK by mass spectrometry” value in assay [1] is “completely modify”. As for `C=CC(=O)Nc1cccc(Nc2nc(Nc3ccccc3)ncc2F)c1` [Compound I-28, N-(3-(5-fluoro-2-(phenylamino)pyrimidin-4-ylamino)phenyl)acrylamide], the “BTK Inhibition Type” value in assay [2] is reported as “irreversible”. Regarding `C#CCOc1cccc(Nc2ncc(C)c(Nc3cccc(NC(=O)C=C)c3)n2)c1` [Compound I-35, N-(3-(5-methyl-2-(3-(prop-2-ynyloxy)phenylamino)pyrimidin-4-ylamino)phenyl) acrylamide], in assay [3], the IC50 is less than 10 nM. The “BTK Inhibition Type” value in assay [2] was “irreversible”. In the case of `Cc1cnc(Nc2ccccc2)nc1Nc1cccc(NC(=O)/C=C/CN(C)C)c1` [Compound I-38, (E)-4-(dimethylamino)-N-(3-(5-methyl-2-(phenylamino)pyrimidin-4-ylamino)phenyl)but-2-enamide], the IC50 in assay [3] is 10 to 100 nM. Also, the “BTK Inhibition Type” value in assay [2] was “reversible”. In the case of `C=C(C#N)C(O)c1cccc(Nc2nc(Nc3ccc(OCCOC)cc3)ncc2F)c1` (stereo not shown) [Compound I-71, 2-((3-(5-fluoro-2-(4-(2-methoxyethoxy)phenylamino)pyrimidin-4-ylamino)phenyl)(hydroxy)methyl)acrylonitrile], the “modification of BTK by mass spectrometry” value in assay [1] is “completely modify”. `C=CC(=O)N1CCOc2ccc(Nc3ncc(F)c(Nc4cccc(Cl)c4)n3)cc21` [Compound I-149, 1-(6-(4-(3-chlorophenylamino)-5-fluoropyrimidin-2-ylamino)-2H-benzo[b][1,4]oxazin-4(3H)-yl)prop-2-en-1-one]: the IC50 in assay [3] is 10 to 100 nM. Further, in assay [1], the “modification of BTK by mass spectrometry” value is on record as “completely modify”. `C=C(C#N)C(O)c1ccc(Nc2nc(Nc3ccccc3)ncc2F)cc1` (stereo not shown) [Compound I-161, 2-((4-(5-fluoro-2-(phenylamino)pyrimidin-4-ylamino)phenyl)(hydroxy)methyl)acrylonitrile]: the “modification of BTK by mass spectrometry” value in assay [1] is “completely modify”. `C=CC(=O)Nc1cccc(Nc2nc(Nc3ccc(OCCOC)cc3)ncc2F)c1` [Compound I-182, N-(3-(5-fluoro-2-(4-(2-methoxyethoxy)phenylamino)pyrimidin-4-ylamino)phenyl)acrylamide]: in assay [1], the “modification of BTK by mass spectrometry” value is recorded as “completely modify”.

As to `C=CC(=O)N1CCC[C@@H](Nc2nc(Nc3cccc(OC)c3)ncc2F)C1` [Compound I-195, (R)-1-(3-(5-fluoro-2-(3-methoxyphenylamino)pyrimidin-4-ylamino)piperidin-1-yl)prop-2-en-1-one], the IC50 in assay [3] was in the range of 10 to 100 nM. The “modification of BTK by mass spectrometry” value in assay [1] is “completely modify”. In the same order, the values of `CC(C)=CC(=O)c1cccc(Nc2nc(Nc3cccc(OCCN(C)C)c3)ncc2F)c1` [Compound I-207] are 100 to 1000 nM and “completely modify”.

Take `C=CC(=O)N(C)Cc1ccc(Nc2nc(Nc3ccccc3)ncc2C)cc1` [Compound I-219, N-methyl-N-(4-(5-methyl-2-(phenylamino)pyrimidin-4-ylamino)benzyl)acrylamide]: the IC50 in assay [3] was in the range of 10 to 100 nM. Moreover, the “modification of BTK by mass spectrometry” value in assay [1] is reported as “completely modify”. `C=CC(=O)N(C)Cc1cccc(Nc2nc(Nc3ccccc3)ncc2C)c1` [Compound I-220, N-methyl-N-(3-(5-methyl-2-(phenylamino)pyrimidin-4-ylamino)benzyl)acrylamide]: the IC50 in assay [3] was 10 to 100 nM.

As for `C=CC(=O)Nc1cccc(Oc2nc(Nc3ccccc3)ncc2F)c1` [Compound I-228, N-(3-(5-fluoro-2-(phenylamino)pyrimidin-4-yloxy)phenyl)acrylamide], the IC50 in assay [3] is less than 10 nM. In addition, the “BTK Inhibition Type” value in assay [2] is “irreversible”.

Take `C=CC(=O)Nc1cccc(Nc2nc(Nc3ccccc3)ncc2C(N)=O)c1` [Compound I-230, 4-(3-acrylamidophenylamino)-2-(phenylamino)pyrimidine-5-carboxamide]: in assay [3], the IC50 is less than 10 nM. In assay [2], the “BTK Inhibition Type” value is on record as “irreversible”. As for `C=CC(=O)Nc1cccc(Nc2nc(Nc3cccc(OCCN(C)C)c3)ncc2F)c1` [Compound I-233, N-(3-(2-(3-(2-(dimethylamino)ethoxy)phenylamino)-5-fluoropyrimidin-4-ylamino)phenyl)acrylamide], the IC50 in assay [3] is less than 10 nM. For `C=CC(=O)Nc1cccc(Nc2nc(Nc3cccc(OC)c3)ncc2C(F)(F)F)c1` [Compound I-242, N-(3-(5-trifluoromethyl-2-(3-methoxyphenylamino)pyrimidin-4-ylamino)phenyl)acrylamide], the IC50 in assay [3] is less than 10 nM. Also, the “BTK Inhibition Type” value in assay [2] is “irreversible”. In the same order, the values of `C=CC(=O)Nc1cccc(Nc2nc(Nc3ccc(OC)nc3)ncc2F)c1` [Compound I-243, N-(3-(5-fluoro-2-(6-methoxypyridin-3-ylamino)pyrimidin-4-ylamino)phenyl)acrylamide] are less than 10 nM and “irreversible”. `C=CC(=O)Nc1cccc(Nc2nc(Nc3cccc(OC(F)(F)F)c3)ncc2F)c1` [Compound I-244, N-(3-(5-fluoro-2-(3-(trifluoromethoxy)phenylamino)pyrimidin-4-ylamino)phenyl)acrylamide]: the IC50 in assay [3] lay within 10 to 100 nM. In addition, the “modification of BTK by mass spectrometry” value in assay [1] is listed as “completely modify”. Take `C=CC(=O)Nc1cccc(Nc2nc(Nc3ccccc3)ncc2C(F)(F)F)c1` [Compound I-245, N-(3-(5-trifluoromethyl-2-(phenylamino)pyrimidin-4-ylamino)phenyl)acrylamide]: in assay [3], the IC50 is less than 10 nM. Turning to `C=CC(=O)Nc1cccc(Nc2nc(Nc3ccc(F)cc3)ncc2F)c1` [Compound I-247, N-(3-(5-fluoro-2-(4-fluorophenylamino)pyrimidin-4-ylamino)phenyl)acrylamide], the IC50 in assay [3] was less than 10 nM. Further, the “BTK Inhibition Type” value in assay [2] was “irreversible”. For the compound `C=CC(=O)Nc1cccc(Oc2nc(Nc3ccccc3)ncc2C)c1` [Compound I-248, N-(3-(5-methyl-2-(phenylamino)pyrimidin-4-yloxy)phenyl)acrylamide], the IC50 in assay [3] was less than 10 nM. In addition, the “BTK Inhibition Type” value in assay [2] was “irreversible”. `C=CC(=O)Nc1cccc(Nc2nc(Nc3ccc(Cl)c(OCC(C)(C)O)c3)ncc2F)c1` [Compound I-249, N-(3-(2-(4-chloro-3-(2-hydroxy-2-methylpropoxy)phenylamino)-5-fluoropyrimidin-4-ylamino)phenyl)acrylamide]: the IC50 in assay [3] is less than 10 nM. As for `C=CC(=O)Nc1cccc(Nc2nc(Nc3ccc(OCC(C)(C)O)nc3)ncc2F)c1` [Compound I-313, N-(3-(5-fluoro-2-(6-(2-hydroxy-2-methylpropoxy)pyridin-3-ylamino)pyrimidin-4-ylamino)phenyl)acrylamide], in assay [3], the IC50 is less than 10 nM.

Turning to `C=CC(=O)Nc1cccc(Nc2nc(Nc3ccc(OCC(C)(C)O)c(F)c3)ncc2F)c1` [Compound I-315, N-(3-(5-fluoro-2-(3-fluoro-4-(2-hydroxy-2-methylpropoxy)phenylamino)pyrimidin-4-ylamino)phenyl)acrylamide], the IC50 in assay [3] is less than 10 nM. For `C=CC(=O)Nc1cccc(Nc2nc(Nc3ccc(O[C@@H]4CCOC4)c(F)c3)ncc2F)c1` [Compound I-316, (R)—N-(3-(5-fluoro-2-(3-fluoro-4-(tetrahydrofuran-3-yloxy)phenylamino)pyrimidin-4-ylamino)phenyl)acrylamide], the IC50 in assay [3] is less than 10 nM. The same measure, in the same setting: the result for `C=CC(=O)Nc1cccc(Nc2nc(Nc3ccc(OCCCS(C)(=O)=O)c(F)c3)ncc2F)c1` [Compound I-318, N-(3-(5-fluoro-2-(3-fluoro-4-(3-(methylsulfonyl)propoxy)phenylamino)pyrimidin-4-ylamino)phenyl)acrylamide] reads less than 10 nM. For `C=CC(=O)Nc1cccc(Nc2nc(Nc3ccc(Cl)c(OCCOC)c3)ncc2F)c1` [Compound I-321, N-(3-(2-(4-chloro-3-(2-methoxyethoxy)phenylamino)-5-fluoropyrimidin-4-ylamino)phenyl)acrylamide], the IC50 in assay [3] was less than 10 nM.
